From ChEMBL document CHEMBL3784999, “Investigation of 4-amino-5-alkynylpyrimidine-2(1H)-ones as anti-mycobacterial agents” (Bioorg Med Chem, 2016)
Converted amounts (≈) assume the structure as drawn. The source made the active and inactive calls. The rule behind the calls is not given here.

Columns and labels:
[1] = test system: Mycobacterium tuberculosis; assay: Antimycobacterial activity against rifampicin resistant Mycobacterium tuberculosis H37Rv ATCC 35838; assay type: functional
[2] = test system: Mycobacterium tuberculosis; assay: Antimycobacterial activity against rifampicin resistant Mycobacterium tuberculosis H37Rv ATCC 35838 at 1 ug/ml; assay type: functional
[3] = test system: Mycobacterium tuberculosis; assay: Antimycobacterial activity against rifampicin resistant Mycobacterium tuberculosis H37Rv ATCC 35838 at 2 ug/ml; assay type: functional, organism-based

CCCCCC#Cc1c[nH]c(=O)nc1N
MIC50 [1]: 12.5 µg/mL (≈ 60.9 µM)

NNC(=O)c1ccncc1 [ISONIAZID]
inhibition at 1 µg/mL [2]: 100%

CO[C@H]1/C=C/O[C@@]2(C)Oc3c(C)c(O)c4c(O)c(c(/C=N/N5CCN(C)CC5)c(O)c4c3C2=O)NC(=O)/C(C)=C\C=C\[C@H](C)[C@H](O)[C@@H](C)[C@@H](O)[C@@H](C)[C@H](OC(C)=O)[C@@H]1C [RIFAMPIN]
Activity [3]: inactive
